In ChEMBL document CHEMBL1138151, “Design and synthesis of promiscuous high-affinity monoamine transporter ligands: unraveling transporter selectivity” (J Med Chem, 2006) one finds Ki and Ratio Ki data, which are given here for 19 compounds.

Assay [1] addresses T1, Sodium-dependent dopamine transporter (Homo sapiens, UniProt Q01959). The experiment in a line: Displacement of [125I]RTI-55 from DAT. (Loss of bound radioactivity is the signal in a displacement assay; it reports binding, not function.)
The target of assay [2] is T2, Sodium-dependent serotonin transporter (Homo sapiens, UniProt P31645). Put plainly: Displacement of [125I]RTI-55 from SERT.
T2 sequence (P31645 whole entry): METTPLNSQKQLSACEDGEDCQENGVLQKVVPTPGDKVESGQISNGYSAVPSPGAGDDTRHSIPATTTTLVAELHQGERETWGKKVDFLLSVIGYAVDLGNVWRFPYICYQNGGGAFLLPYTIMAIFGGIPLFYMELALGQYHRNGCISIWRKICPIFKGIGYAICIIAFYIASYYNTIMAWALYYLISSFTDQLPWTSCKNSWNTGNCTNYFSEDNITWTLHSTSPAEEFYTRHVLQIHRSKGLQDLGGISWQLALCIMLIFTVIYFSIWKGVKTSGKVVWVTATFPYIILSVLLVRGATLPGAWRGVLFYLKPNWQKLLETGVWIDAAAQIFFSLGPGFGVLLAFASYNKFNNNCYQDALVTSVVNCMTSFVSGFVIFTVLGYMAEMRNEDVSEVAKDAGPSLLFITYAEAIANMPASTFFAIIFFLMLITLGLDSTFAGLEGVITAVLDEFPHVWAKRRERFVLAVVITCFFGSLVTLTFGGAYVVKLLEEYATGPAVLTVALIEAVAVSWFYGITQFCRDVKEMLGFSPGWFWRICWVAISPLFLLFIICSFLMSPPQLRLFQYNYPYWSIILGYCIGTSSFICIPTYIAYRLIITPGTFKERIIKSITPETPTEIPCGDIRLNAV
Assay [3] deals with T3, Monoamine transporters; serotonin & dopamine (Homo sapiens) (UniProt P31645+Q01959). The experiment in a line: Selectivity for SERT over DAT. The format is protein assay.
T3 sequence (P31645 whole entry, looked up): as the sequence (P31645 whole entry) above
T3 sequence (Q01959 whole entry, looked up): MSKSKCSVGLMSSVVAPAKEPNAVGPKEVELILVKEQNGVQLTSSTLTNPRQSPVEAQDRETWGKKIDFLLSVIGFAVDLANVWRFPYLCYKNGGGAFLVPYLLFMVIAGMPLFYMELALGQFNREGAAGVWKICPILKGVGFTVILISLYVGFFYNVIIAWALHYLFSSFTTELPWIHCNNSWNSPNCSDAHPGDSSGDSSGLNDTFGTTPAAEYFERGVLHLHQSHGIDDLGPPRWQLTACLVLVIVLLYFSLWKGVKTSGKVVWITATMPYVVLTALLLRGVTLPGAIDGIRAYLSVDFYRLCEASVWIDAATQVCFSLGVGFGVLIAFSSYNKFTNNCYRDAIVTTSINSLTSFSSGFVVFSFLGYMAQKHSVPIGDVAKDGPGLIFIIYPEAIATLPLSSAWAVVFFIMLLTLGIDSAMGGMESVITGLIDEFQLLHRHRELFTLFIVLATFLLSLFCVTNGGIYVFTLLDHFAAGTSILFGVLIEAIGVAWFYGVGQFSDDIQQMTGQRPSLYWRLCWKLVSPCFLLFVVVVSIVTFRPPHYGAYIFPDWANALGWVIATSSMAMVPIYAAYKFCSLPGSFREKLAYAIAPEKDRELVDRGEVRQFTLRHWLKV
Assay [4] addresses T4, Sodium-dependent noradrenaline transporter (Homo sapiens, UniProt P23975). The experiment in a line: Displacement of [3H]nisoxetine from NET.
The target of assay [5] is T1, Sodium-dependent dopamine transporter. The experiment in a line: Inhibition of [3H]DA uptake.
Assay [6] addresses T4, Sodium-dependent noradrenaline transporter. The experiment in a line: Inhibition of [3H]NE uptake.
The nature of assay [7]: Selectivity for NET over DAT. The following applies: Homo sapiens. The format is protein assay.
The target of assay [8] is T3, Monoamine transporters; serotonin & dopamine (Homo sapiens). The experiment in a line: Ratio for uptake of 5HT over DA. The format is protein assay.
Assay [9] has as its target Monoamine transporters; Norepinephrine & dopamine (Homo sapiens) (UniProt Q01959+P23975). Put plainly: Ratio for uptake of NE over DA. The format is protein assay.
Assay [10] deals with T2, Sodium-dependent serotonin transporter. The experiment in a line: Inhibition of [3H]5-HT uptake.

Molecules are shown by their SMILES.

T1 sequence (Q01959 whole entry): as the sequence (Q01959 whole entry, looked up) above
T4 sequence (P23975 whole entry): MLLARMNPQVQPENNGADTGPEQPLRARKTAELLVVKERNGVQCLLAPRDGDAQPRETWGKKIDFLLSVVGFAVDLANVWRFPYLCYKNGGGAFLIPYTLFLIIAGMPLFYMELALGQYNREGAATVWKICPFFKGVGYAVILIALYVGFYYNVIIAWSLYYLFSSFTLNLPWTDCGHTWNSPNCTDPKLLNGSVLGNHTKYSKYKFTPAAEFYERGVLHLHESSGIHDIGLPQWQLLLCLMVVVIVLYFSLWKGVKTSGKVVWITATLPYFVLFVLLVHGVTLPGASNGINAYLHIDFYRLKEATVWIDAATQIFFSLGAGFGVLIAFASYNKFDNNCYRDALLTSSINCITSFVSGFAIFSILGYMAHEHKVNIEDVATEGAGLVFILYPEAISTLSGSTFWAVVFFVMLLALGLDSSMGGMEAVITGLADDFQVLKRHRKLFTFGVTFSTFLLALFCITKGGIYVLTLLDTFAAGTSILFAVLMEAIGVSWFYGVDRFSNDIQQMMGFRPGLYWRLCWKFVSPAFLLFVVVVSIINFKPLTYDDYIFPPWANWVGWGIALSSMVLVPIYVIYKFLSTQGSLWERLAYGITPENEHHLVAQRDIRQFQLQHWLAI
Chain of Monoamine transporters; Norepinephrine & dopamine (Homo sapiens) (P23975 whole entry, looked up): as the sequence (P23975 whole entry) above
Chain of Monoamine transporters; Norepinephrine & dopamine (Homo sapiens) (Q01959 whole entry, looked up): as the sequence (Q01959 whole entry, looked up) above

For `C[C@@H](Cc1ccccc1)CN1CCC(CCOC(c2ccc(F)cc2)c2ccc(F)cc2)CC1`, the Ki (as a rule, a dissociation constant, usually derived from enzyme kinetics or from competition with a known ligand) in [1] stood at 8 nM; in assay [2] it was 100 nM; in assay [4] it was 380 nM; in assay [5], 3.8 nM; in [6] it was 160 nM; in assay [10], 124 nM. Besides, the Ratio Ki was determined as 13 in assay [3], 47 in assay [7], 33 in assay [8] and 42 in assay [9].
For the compound `C[C@H](Cc1ccccc1)CN1CCC(CCOC(c2ccc(F)cc2)c2ccc(F)cc2)CC1`, the figures for the Ki in assay [1], in [2] and in assay [4] were 0.9 nM, 53 nM and 103 nM, respectively. Besides, the Ratio Ki was found to be 61 in [3] and 118 in assay [7].
With `O[C@@H](CCc1ccccc1)CN1CCC(CCOC(c2ccc(F)cc2)c2ccc(F)cc2)CC1`, the Ki in [1] turned out to be 1.6 nM; in assay [2] it was 38 nM; in assay [4] it was 736 nM. For the same compound, the values for the Ratio Ki in assay [3] and in assay [7] were 24 and 457, respectively.
For `Fc1ccc(C(OCCC2CCN(C[C@H]3C[C@@H]3c3ccccc3)CC2)c2ccc(F)cc2)cc1` the same measures were 1.4 nM, 136 nM, 359 nM, 97 and 256.
For `O[C@H](Cc1ccccc1)CN1CCC(CCOC(c2ccccc2)c2ccccc2)CC1`, in that order: 6.9 nM, 286 nM, 785 nM, 42 and 114.
For the compound `N[C@H](Cc1ccccc1)CN1CCC(CCOC(c2ccc(F)cc2)c2ccc(F)cc2)CC1`, the Ki in assay [1] stood at 12 nM; in assay [2], 68 nM; in assay [4] it was 941 nM; in assay [5], 17 nM; in [6], 402 nM; in assay [10], 229 nM. Besides, the Ratio Ki in assay [3] came to 6; in assay [7], 78; in assay [8], 13; in assay [9], 24.
On to `O[C@@H](Cc1ccccc1)CN1CCC(CCOC(c2ccc(F)cc2)c2ccc(F)cc2)CC1`, for which the Ki in assay [1] worked out at 0.4 nM; in [2] it was 82 nM; in assay [4], 361 nM. The Ratio Ki in [3] is 205; in assay [7], 902.
Take `C[C@H](CCN1CCC(CCOC(c2ccc(F)cc2)c2ccc(F)cc2)CC1)c1ccccc1`: the Ki in assay [1] amounted to 2.2 nM; in assay [2], 58 nM; in [4], 560 nM. The results for the Ratio Ki in assay [3] and in assay [7] were 26 and 253, respectively.
As to `N[C@@H](Cc1ccccc1)CN1CCC(CCOC(c2ccc(F)cc2)c2ccc(F)cc2)CC1`, the Ki in assay [1] is 6.3 nM; in assay [2], 76 nM; in [4], 851 nM; in assay [5], 13 nM; in assay [6] it was 338 nM; in [10], 228 nM. Also, the Ratio Ki in assay [3] is 12; in [7], 135; in assay [8], 18; in assay [9] it was 26.
On to `O[C@H](CCN1CCC(CCOC(c2ccc(F)cc2)c2ccc(F)cc2)CC1)c1ccccc1`, for which the figures for the Ki in assay [1], in [2] and in [4] were 0.8 nM, 43 nM and 330 nM, respectively. The Ratio Ki in assay [3] turned out to be 51; in assay [7], 394.
Regarding `O[C@H](CCc1ccccc1)CN1CCC(CCOC(c2ccc(F)cc2)c2ccc(F)cc2)CC1`, the Ki in [1] amounted to 2.1 nM; in [2] it was 13 nM; in assay [4], 460 nM; in assay [5] it was 1.4 nM; in assay [6], 79 nM; in assay [10], 19 nM. The Ratio Ki in assay [3] was determined as 6; in [7], 215; in assay [8] it was 14; in assay [9], 56.
For `O[C@@H](Cc1ccccc1)CN1CCC(CCOC(c2ccccc2)c2ccccc2)CC1`, the values for the Ki in [1], in assay [2] and in [4] were 1.4 nM, 450 nM and 485 nM, respectively. For the same compound, the Ratio Ki in assay [3] came out at 332; in [7] it was 359.
Consider `Fc1ccc(C(OCCC2CCN(CC3=Cc4ccccc4CC3)CC2)c2ccc(F)cc2)cc1`, for which the results for the Ki in assay [1], in [2] and in assay [4] were 1.1 nM, 127 nM and 43 nM, respectively. Moreover, the Ratio Ki is 118 in [3] and 40 in [7].
As to `O[C@@H](CCN1CCC(CCOC(c2ccccc2)c2ccccc2)CC1)c1ccccc1`, the Ki in assay [1] is 2.1 nM; in assay [2] it was 230 nM; in [4] it was 210 nM. Moreover, the Ratio Ki in [3] was 107; in [7], 101.
In the case of `C[C@@H](CCN1CCC(CCOC(c2ccc(F)cc2)c2ccc(F)cc2)CC1)c1ccccc1`, the Ki in [1] worked out at 1.3 nM; in assay [2], 30 nM; in [4] it was 340 nM; in assay [5], 2.1 nM; in assay [6] it was 40 nM; in assay [10], 75 nM. The Ratio Ki amounted to 22 in [3], 259 in [7], 36 in [8] and 19 in [9].
On to `O[C@@H](CCN1CCC(CCOC(c2ccc(F)cc2)c2ccc(F)cc2)CC1)c1ccccc1`, for which the figures for the Ki in assay [1], in assay [2] and in assay [4] were 0.9 nM, 22 nM and 440 nM, respectively. The Ratio Ki is 26 in [3] and 515 in assay [7].
Take `O[C@H](CCN1CCC(CCOC(c2ccccc2)c2ccccc2)CC1)c1ccccc1`: the values for the Ki in [1], in assay [2] and in assay [4] were 1.8 nM, 280 nM and > 5600 nM, respectively. For the same compound, the Ratio Ki in assay [3] was 158; in [7], > 3200.
For the compound `O[C@H](Cc1ccccc1)CN1CCC(CCOC(c2ccc(F)cc2)c2ccc(F)cc2)CC1`, the Ki is 5.1 nM in assay [1]; 91 nM in [2]; 1220 nM in assay [4]; 1.7 nM in assay [5]; 143 nM in assay [6]; 41 nM in [10]. Besides, the Ratio Ki in assay [3] stood at 18; in assay [7], 240; in assay [8], 24; in [9], 84.
Consider `Fc1ccc(C(OCCC2CCN(C[C@@H]3C[C@H]3c3ccccc3)CC2)c2ccc(F)cc2)cc1`, for which the results for the Ki in assay [1], in assay [2] and in assay [4] were 0.5 nM, 16 nM and 947 nM, respectively. Also, the Ratio Ki in assay [3] stood at 32; in assay [7] it was 1890.
